Data published in publication PMC11994961, “In Vivo pharmacokinetic interactions of ribociclib with rivaroxaban and apixaban in rats: implications for increased drug exposure and dose adjustments” (Frontiers in Pharmacology, 2025).
Like-named read-outs stand apart in the source and are kept apart here.

Assay: Pharmacokinetic study of rivaroxaban in rats, alone and with ribociclib (UPLC-MS/MS plasma levels)
Assay type: in vivo, Sprague-Dawley rats
Details: for CL/F: read-out: CLz/F (converted); for MRT inf: read-out: MRT0- ∞; for MRT last: read-out: MRT0-t; for Vd/F: read-out: Vz/F
Protocol: Experimental animals were randomly divided into nine groups (n = 6, Table 1). Ribociclib was suspended in methylcellulose (MC), rivaroxaban was prepared in hydroxypropyl methylcellulose (HPMC), and apixaban was suspended in 5% DMSO in water. To achieve steady-state blood concentrations, a drug typically requires five to seven half-lives. Based on this principle, ribociclib was administered orally for eight consecutive days, while rivaroxaban and apixaban were administered orally for five consecutive days to ensure steady-state concentrations were reached before further analysis.
Approximately 0.1 mL of blood was collected into heparinized tubes via the orbitalat specified time points before and after the final drug administration. For apixaban, blood samples were collected at 0, 0.083, 0.167, 0.25, 0.333, 0.5, 0.75, 1, 3, 5, 7, 10, and 12 h. For rivaroxaban, sampling was conducted at 0, 0.167, 0.333, 0.5, 0.75, 1.5, 2, 3, 4, 5, 6, 8, 10, 12, and 24 h. For ribociclib, samples were taken at 0, 0.5, 1, 2, 4, 5, 6, 8, 10, 12, 24, and 48 h. Blood samples were centrifuged at 3,500 rpm for 10 min, and the supernatant was collected and stored at −80°C until processing for UPLC-MS/MS.
Apixaban and rivaroxaban concentrations in plasma samples were determined using our previously established UPLC-MS/MS method ([Wang et al., 2023]). Ribociclib concentrations were quantified using an LC-30A UPLC system (Shimadzu, Kyoto, Japan) coupled with a Sciex Triple Quad 5500 tandem quadrupole mass spectrometer (AB Sciex, Framingham, MA, United States) equipped with an electrospray ionization interface. Chromatographic separation was performed using a Welch Boltimate column (2.1 mm × 100 mm, 2.7 μm) maintained at 40°C. The mobile phase was composed of water containing 0.1% formic acid (phase A) and acetonitrile (phase B). The flow rate was held constant at 0.3 mL/min. The gradient elution protocol was as follows: 0–2.5 min, 60% B; 2.5–3.5 min, 60%–90% B; 3.5–5.5 min, 90% B; 5.5–5.6 min, 90%–60% B; 5.6–6.6 min, 60% B. The injection volume was 1 μL.
Pharmacokinetic parameters were calculated based on a non-compartmental model using DAS 2.1.1 Software (Mathematical Pharmacology Professional Committee of China, Shanghai, China). The area under the concentration–time curve (AUC), maximum plasma concentration (Cmax), time to maximum plasma concentration (Tmax), the time required to eliminate half of the plasma drug concentration (t1/2), clearance of drug plasma volume per unit time (CLz/F), apparent volume distribution (Vz/F), mean residence time (MRT) and the absorption rate constant (Ka) are all expressed as mean ± standard deviation (SD). SPSS 25.0 statistical software (SPSS Inc., Chicago, IL, United States) was applied to statistically analyze the mainpharmacokinetic parameters. Shapiro-Wilk test was used to assess whether the data were normally distributed, t test was used for parameters conforming to the normal distribution, and Mann-Whitney U test was used for parameters not conforming to the normal distribution. Statistical comparisons were conducted using a analysis of variance, t-test or nonparametric rank-sum test depending on the data type. A P-value <0.05 was deemed statistically significant.

[1] = RIVA 1 mg/kg + multiple doses of RIBO vs RIVA 2 mg/kg alone
[2] = RIVA 2 mg/kg (normal dose) + multiple doses of RIBO vs alone
[3] = RIVA 2 mg/kg + timed RIBO (12 h), RIBO 60 mg/kg for 8 days
[4] = RIVA 2 mg/kg after multiple doses of RIBO vs RIVA 2 mg/kg alone
[5] = RIVA 2 mg/kg with 12-h interval to RIBO vs RIVA 2 mg/kg alone
[6] = Sprague-Dawley, rat, plasma, po, 1 mg/kg, RIVA 1 mg/kg + RIBO 60 mg/kg for 8 days
[7] = Sprague-Dawley, rat, plasma, po, 2 mg/kg, RIVA 2 mg/kg + RIBO 60 mg/kg for 8 days
[8] = Sprague-Dawley, rat, plasma, po, 2 mg/kg, RIVA 2 mg/kg + timed RIBO (12 h), RIBO 60 mg/kg for 8 days
[9] = Sprague-Dawley, rat, plasma, po, 2 mg/kg, oral RIVA 2 mg/kg alone

SMILES: O=C(NC[C@H]1CN(c2ccc(N3CCOCC3=O)cc2)C(=O)O1)c1ccc(Cl)s1 [RIVA, rivaroxaban]
- decrease of CLz/F [1]: 70.97%
- decrease of Vz/F [1]: 78.29%
- difference in MRT0- ∞ [1]: not statistically significant
- difference in Tmax [1]: not statistically significant
- increase of AUC0- ∞ [1]: 228.46%
- increase of AUC0-t [1]: 230.62%
- increase of Cmax [1]: 133.14%
- increase of MRT0-t [1]: 30.06%
- increase of AUC0- ∞ [2]: ~2.1 fold
- increase of AUC0-t (AUC) [2]: about 2.4 fold
- increase of Cmax [2]: 1.9 fold
- Cmax (RIVA 2 mg/kg + RIBO 60 mg/kg for 8 days): 0.83833 ± 0.48092 µg/mL
- AUC0- ∞ [3]: 2,217.15 ± 800.81 μg/L*h
- Cmax [3]: 0.4545 ± 0.21488 µg/mL
- Vz/F [3]: 3.72 ± 1.98 L/kg
- t1/2 [3]: 2.65 ± 1.48 h
- decrease of CLz/F [4]: 65.81%
- decrease of Vz/F [4]: 82.91%
- decrease of t1/2z [4]: 57.09%
- difference in MRT0- ∞ [4]: not statistically significant
- difference in Tmax [4]: not statistically significant
- increase of AUC0- ∞ [4]: 213.79%
- increase of AUC0-t [4]: 240.19%
- increase of Cmax [4]: 186.93%
- increase of MRT0-t [4]: 21.39%
- decrease of CLz/F [5]: 34.84%
- decrease of Vz/F [5]: 62.61%
- difference in Cmax [5]: not statistically significant
- difference in MRT0- ∞ [5]: not statistically significant
- difference in Tmax [5]: not statistically significant
- increase of AUC0- ∞ [5]: 63.03%
- increase of AUC0-t [5]: 74.16%
- increase of MRT0-t [5]: 22.54%
- Cmax (Sprague-Dawley, rat, plasma, oral RIVA 2 mg/kg alone, read-out: Cmax): 0.292 ± 0.0675 µg/mL
- AUC(0-inf) [6]: 4.47 µg·h/mL
- AUC(0-t) [6]: 3.99 ± 0.445 µg·h/mL
- Tmax [6]: 1.92 ± 0.2 h
- half-life [6]: 3.34 ± 0.79 h
- CL/F [6]: 0.45 L/h/kg
- MRT inf [6]: 5.84 ± 0.81 h
- MRT last [6]: 4.5 ± 0.25 h
- Vd/F [6]: 2.16 ± 0.04 L/kg
- AUC(0-inf) [7]: 4.27 µg·h/mL
- AUC(0-t) [7]: 4.1 µg·h/mL
- Tmax [7]: 2.83 ± 0.41 h
- half-life [7]: 2.15 ± 0.94 h
- CL/F [7]: 0.53 L/h/kg
- MRT inf [7]: 4.74 ± 0.63 h
- MRT last [7]: 4.2 ± 0.63 h
- Vd/F [7]: 1.7 ± 0.99 L/kg
- AUC(0-t) [8]: 2.1 µg·h/mL
- Tmax [8]: 3 ± 0.63 h
- CL/F [8]: 1.01 L/h/kg
- MRT inf [8]: 4.93 ± 1.3 h
- MRT last [8]: 4.24 ± 0.69 h
- AUC(0-inf) [9]: 1.36 µg·h/mL
- AUC(0-t) [9]: 1.21 µg·h/mL
- Tmax [9]: 2.13 ± 0.83 h
- half-life [9]: 5.01 ± 3.3 h
- CL/F [9]: 1.55 L/h/kg
- MRT last [9]: 3.46 ± 0.43 h
- Vd/F [9]: 9.95 ± 4.58 L/kg
- Cmax (Sprague-Dawley, rat, plasma, po, RIVA 1 mg/kg + RIBO 60 mg/kg for 8 days, read-out: Cmax): 0.681 ± 0.0755 µg/mL
- AUC at 1 mg/kg versus AUC at 2 mg/kg (both with multiple doses of RIBO): not significantly different
- MRT0- ∞ (oral RIVA 2 mg/kg alone): 5.31 ± 2.01 h
- increase of Cmax (reduced RIVA 1 mg/kg + multiple doses of RIBO): 1.3 fold
